Results: patent US12502440B2, “Cross-linking compounds and methods of use thereof” (North Carolina State University, priority 2019, dated 2025)
“And” between values parts separate entries of the source, which are not always exact repeats. Equal entries are not always repeated.

What was measured:
Assay type in all cases: biochemical
[1] = test system: β-glucosidase from almonds; experiment: Indigogenic reaction with β-glucosidase from almonds
rat liver homogenate = experiment: Indigoid-dye formation in rat liver homogenate; details: indoxyl 1 mM in rat liver homogenate, 5% DMF, 37° C., 24 h; ε = 1.27 × 10^4 M^−1 cm^−1 measured for 4
Procedure: Finally, indigoid-dye formation was carried out in rat liver homogenate (Table 1, rightmost column).
Reactions in rat liver homogenate. An indoxyl compound in DMF (5 μL, 20 mM) was mixed with rat liver homogenate (95 μL). The reaction mixture was incubated at 37° C. for 24 h. After allowing to cool to room temperature, the reaction mixture was diluted with DMF (900 μL). The mixture was heated at 70° C. for 2 min and then centrifuged for 2 min. The supernatant was separated from any precipitate. This extraction procedure was repeated two or three times with DMF (100-500 μL). The combined supernatant (1500-1800 μL) was analyzed by absorption spectroscopy.

[2] = target: T1, β-glucosidase from Agrobacterium (Agrobacterium sp., UniProt P12614); experiment: Indigogenic reaction with β-glucosidase from Agrobacterium
T1 construct: purchased Megazyme
T1 sequence (P12614 1-459): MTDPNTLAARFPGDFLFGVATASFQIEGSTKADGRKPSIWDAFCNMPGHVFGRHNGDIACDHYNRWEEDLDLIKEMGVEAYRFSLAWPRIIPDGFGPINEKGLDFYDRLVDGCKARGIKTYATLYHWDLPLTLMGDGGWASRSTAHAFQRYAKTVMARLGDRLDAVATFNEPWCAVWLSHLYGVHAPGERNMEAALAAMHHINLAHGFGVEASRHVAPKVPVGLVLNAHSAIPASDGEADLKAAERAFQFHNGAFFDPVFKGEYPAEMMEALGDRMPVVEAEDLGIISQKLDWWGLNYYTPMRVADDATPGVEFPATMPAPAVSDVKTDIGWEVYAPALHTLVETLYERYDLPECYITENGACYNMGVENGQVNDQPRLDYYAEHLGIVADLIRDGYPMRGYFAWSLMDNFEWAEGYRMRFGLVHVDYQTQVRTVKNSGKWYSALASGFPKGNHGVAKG
Procedure: Next, the β-glucosidase from Agrobacterium sp. was investigated as the trigger enzyme for indigoid dye formation. […] The reaction was carried out using the enzyme (200 nM) and indoxyl-glucoside 33 (100 μM) in phosphate buffer (pH 4-9, containing 2% DMF) at 37° C. […] Note that with 200 nM enzyme and 100 μM substrate, complete reaction requires 500 turnovers of each enzyme.
Reactions with β-glucosidase from Agrobacterium. An indoxyl compound in DMF (2 μL, 5 mM) and β-glucosidase from Agrobacterium in 10 mM phosphate buffer [2 μL, 10 μM, pH 7.0, containing 50 mM NaCl and 0.6 M (NH4)2SO4] were mixed with 50 mM phosphate buffer (96 μL, pH 7.0). The reaction mixture was incubated at 37° C. for 2 h and then centrifuged for 3 min. Any precipitate was separated from the supernatant and dissolved in DMF (200 μL). The resulting solution was analyzed by absorption spectroscopy. The experiment was repeated three times.

[3] = indoxyl 1 mM, enzyme 1 unit/mL, 0.01M acetate buffer pH 5, 5% DMF, 37° C., 16-19 h, ε = 1.27 × 10^4 M^−1 cm^−1 measured for 4
[4] = indoxyl 100 μM, enzyme 200 nM, 0.05M phosphate buffer pH 7.0, 2% DMF, 37° C., 2 h, three repeats, ε = 1.27 × 10^4 M^−1 cm^−1 measured for 4
[5] = as E4 but ε measured for 43 (footnote g)
[6] = as E1 but ε measured for 43 (footnote g)

Molecule | Yield (%) of indigoid dye, β-glucosidase from almonds [1, 3] | Yield (%) of indigoid dye, rat liver homogenate (rat liver homogenate) | Yield (%) of indigoid dye, β-glucosidase from almonds ([1]; as E1 but ε = 2.00 × 10^4 M^−1 cm^−1 reported for 5,5′-dibromo-4,4′-dichloroindigo (footnote e)) | Yield (%) of indigoid dye, β-glucosidase from Agrobacterium ([2]; as E4 but ε = 2.00 × 10^4 M^−1 cm^−1 reported for 5,5′-dibromo-4,4′-dichloroindigo (footnote e)) | Yield (%) of indigoid dye, β-glucosidase from Agrobacterium [2, 4] | Yield (%) of indigoid dye, β-glucosidase from Agrobacterium [2, 5] | Yield (%) of indigoid dye, β-glucosidase from almonds [1, 6]
5-[(Benzylcarbamoyl)oxy)]-1H-indole-3-yl β-D-glucopyranoside [compound 16] | 24% | 9% |  |  |  |  | 
5-bromo-4-chloroindoxyl β-glucoside [compound 42, reference compound] |  | 65% | 74% and 74^e % | 116% and 116 ± 8^e % |  |  | 
COc1nc(Oc2ccc3[nH]cc(O[C@@H]4O[C@H](CO)[C@@H](O)[C@H](O)[C@H]4O)c3c2)nc(N2CCOCC2)n1 [compound 19, 5-[(4-Methoxy-6-morpholino-1,3,5-triazin-2-yl)oxy]-1H-indole-3-yl β-D-glucopyranoside] | <1% | <5% |  |  | 46 + 5% |  | 
COc1nc(Oc2ccc3[nH]cc(O[C@@H]4O[C@H](CO)[C@@H](O)[C@H](O)[C@H]4O)c3c2Br)nc(N2CCOCC2)n1 [compound 20, 4-Bromo-5-[(4-methoxy-6-morpholino-1,3,5-triazin-2-yl)oxy]-1H-indole-3-yl β-D-glucopyranoside] |  | <5% |  |  | 150 ± 3% |  | 
COc1nc(Oc2c(Br)cc3[nH]cc(O[C@@H]4O[C@H](CO)[C@@H](O)[C@H](O)[C@H]4O)c3c2Br)nc(N2CCOCC2)n1 [compound 21, 4,6-Dibromo-5-[(4-methoxy-6-morpholino-1,3,5-triazin-2-yl)oxy]-1H-indole-3-yl β-D-glucopyranoside] |  | <5% |  |  | 63 ± 4% | 31 ± 2% | 
COC(=O)COc1ccc2[nH]cc(OC3O[C@H](CO)[C@@H](O)[C@H](O)[C@H]3O)c2c1 (stereo partly drawn) [compound 22, 5-(Methoxycarbonyl)methoxy-1H-indol-3-yl-D-glucopyranoside] | <1% | <5% |  |  | 30 ± 6% |  | 
COC(=O)COc1ccc2[nH]cc(O[C@@H]3O[C@H](CO)[C@@H](O)[C@H](O)[C@H]3O)c2c1Br [compound 23, 4-Bromo-5-(methoxycarbonyl)methoxy-1H-indol-3-yl β-D-glucopyranoside] | 68% | <5% |  |  | 84 ± 4% |  | 
COC(=O)COc1c(Br)cc2[nH]cc(O[C@@H]3O[C@H](CO)[C@@H](O)[C@H](O)[C@H]3O)c2c1Br [compound 24, 4,6-Dibromo-5-(methoxycarbonyl)methoxy-1H-indol-3-yl β-D-glucopyranoside] | 122% | <5% |  |  | 209 ± 6% | 102 + 3% | 59%
C#CCOc1ccc2[nH]cc(O[C@@H]3O[C@H](CO)[C@@H](O)[C@H](O)[C@H]3O)c2c1 [compound 25, 5-Propargyloxy-1H-indol-3-yl β-D-glucopyranoside] | <5% | 11% |  |  | 37 ± 2% |  | 
C#CCOc1ccc2[nH]cc(O[C@@H]3O[C@H](CO)[C@@H](O)[C@H](O)[C@H]3O)c2c1Br [compound 26, 4-Bromo-5-propargyloxy-1H-indol-3-yl β-D-glucopyranoside] | 56% | 17% |  |  | 79 ± 1% |  | 
C#CCOc1c(Br)cc2[nH]cc(O[C@@H]3O[C@H](CO)[C@@H](O)[C@H](O)[C@H]3O)c2c1Br [compound 27, 4,6-Dibromo-5-propargyloxy-1H-indol-3-yl β-D-glucopyranoside] | 105% | 50% |  |  | 184 ± 3% | 89 ± 2% | 51%
OC[C@H]1O[C@@H](Oc2c[nH]c3cc(Br)c(OC[C@@H]4[C@@H]5CCC#CCC[C@@H]54)c(Br)c23)[C@H](O)[C@@H](O)[C@@H]1O [compound 30, 5-{[(1R,8S,9s)-Bicyclo[6.1.0]non-4-yn-9-yl]methoxy}-4,6-dibromo-1H-indole-3-yl β-D-glucopyranoside] |  |  |  |  | 21 ± 1% | 10% and 10 ± 0.4% | 
